Measured values reported in patent US20230203043A1, “NOVEL IMIDAZOPYRAZINE DERIVATIVES” (Hoffmann-La Roche Inc., priority 2020, published 2023).
Structures can show the parent of a compound that is named as a salt. Where two headings read alike, the source gives them in different places.

System: Acinetobacter baumannii ATCC17961
Assay: Antimicrobial susceptibility testing: 90% growth inhibitory concentration (IC90) determination in Iso-Sensitest broth, OD600 growth
Type: cell-based
In short: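 Growth monitored at 600 nm every 20 min for 16 h at 35±2 °C, inoculum ~5×10^(5) CFU/ml in Iso-Sensitest medium. Compounds in 10-point twofold series, e.g. 50 to 0.097 μM final; 90% inhibitory concentration taken from log-phase growth.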

[1] = Acinetobacter baumannii, ATCC17961, 16 h, strain ATCC 17961, OD600 growth over 16 h, read-out: A. baumannii ATCC 17961 IC90
[2] = Acinetobacter baumannii, ATCC17961, 16 h, read-out: A. baumannii ATCC 17961 IC90 (uM), strain ATCC 17961, OD600 growth over 16 h
[3] = strain ATCC 17961, OD600 growth over 16 h, read-out: A. baumannii ATCC 17961 IC90

Row | SMILES | IC90 [1] | further results
1 | N[C@H]1CCN(C(=O)CNC(=O)c2ccc(Nc3nccn4c(-c5c[nH]nc5C(F)(F)F)cnc34)cc2Cl)C1 [Example 164, N-[2-[(3S)-3-aminopyrrolidin-1-yl]-2-oxoethyl]-2-chloro-4-[[3-[3-(trifluoromethyl)-1H-pyrazol-4-yl]imidazo[1,2-a]pyrazin-8-yl]amino]benzamide] | 1.93 µM | 
2 | CN(C)CCNC(=O)CNC(=O)c1ccc(Nc2nccn3c(-c4c[nH]nc4C(F)(F)F)cnc23)cc1Cl [Example 165, 2-chloro-N-[2-[2-(dimethylamino)ethylamino]-2-oxoethyl]-4-[[3-[3-(trifluoromethyl)-1H-pyrazol-4-yl]imidazo[1,2-a]pyrazin-8-yl]amino]benzamide formate] |  | IC90 [2]: 2.52 µM
3 | NCCNC(=O)CNC(=O)c1ccc(Nc2nccn3c(-c4c[nH]nc4C(F)(F)F)cnc23)cc1Cl [Example 166, N-[2-(2-aminoethylamino)-2-oxoethyl]-2-chloro-4-[[3-[3-(trifluoromethyl)-1H-pyrazol-4-yl]imidazo[1,2-a]pyrazin-8-yl]amino]benzamide] | 4.48 µM | 
4 | NC1CN(C(=O)c2ccc(Nc3nccn4c(-c5c[nH]nc5C(F)(F)F)cnc34)cc2Cl)C1 [Example 167] |  | IC90 [3]: 0.485 µM
5 | O=C(c1ccc(Nc2nccn3c(-c4cn(Cc5ncccn5)nc4C(F)(F)F)cnc23)cc1Cl)N1CCNCC1 [Example 169, [2-chloro-4-[[3-[1-(pyrimidin-2-ylmethyl)-3-(trifluoromethyl)pyrazol-4-yl]imidazo[1,2-a]pyrazin-8-yl]amino]phenyl]-piperazin-1-ylmethanone formate] |  | IC90 [2]: 0.392 µM
6 | N#CCn1cc(-c2cnc3c(Nc4ccc(C(=O)N5CCN(C(=O)N6CCC(N)CC6)CC5)c(Cl)c4)nccn23)c(C(F)(F)F)n1 [Example 178, 2-[4-[8-4-[4-(4-aminopiperidine-1-carbonyl)piperazine-1-carbonyl]-3-chloroanilino]imidazo[1,2-a]pyrazin-3-yl]-3-(trifluoromethyl) pyrazol-1-yl]acetonitrile formate] |  | IC90 [3]: 0.161 µM
7 | N#CCn1cc(-c2cnc3c(Nc4ccc(C(=O)N5CCN(C(=O)N6CC[C@@H](N)C6)CC5)c(Cl)c4)nccn23)c(C(F)(F)F)n1 [Example 179, 2-[4-[8-4-[4-[(3R)-3-aminopyrrolidine-1-carbonyl]piperazine-1-carbonyl]-3-chloroanilino]imidazo[1,2-a]pyrazin-3-yl]-3-(trifluoromethyl) pyrazol-1-yl]acetonitrile formate] |  | IC90 [3]: 0.181 µM
8 | N#CCn1cc(-c2cnc3c(Nc4ccc(C(=O)N5CCN(C(=O)N6CC[C@H](N)C6)CC5)c(Cl)c4)nccn23)c(C(F)(F)F)n1 [Example 180, 2-[4-[8-[4-[4-[(3S)-3-aminopyrrolidine-1-carbonyl]piperazine-1-carbonyl]-3-chloroanilino]imidazo[1,2-a]pyrazin-3-yl]-3-(trifluoromethyl)pyrazol-1-yl]acetonitrile formate] |  | IC90 [2]: 0.182 µM
9 | Cn1nccc1Cn1cc(-c2cnc3c(Nc4ccc(C(=O)N5CCNCC5)c(Cl)c4)nccn23)c(C(F)(F)F)n1 [Example 181, [2-chloro-4-[[3-[1-[(2-methylpyrazol-3-yl)methyl]-3-(trifluoromethyl)pyrazol-4-yl]imidazo[1,2-a]pyrazin-8-yl]amino]phenyl]-piperazin-1-ylmethanone formate] |  | IC90 [2]: 0.293 µM
10 | O=C(c1ccc(Nc2nccn3c(-c4cn(Cc5cncnc5)nc4C(F)(F)F)cnc23)cc1Cl)N1CCNCC1 [Example 182, [2-chloro-4-[[3-[1-(pyrimidin-5-ylmethyl)-3-(trifluoromethyl)pyrazol-4-yl]imidazo[1,2-a]pyrazin-8-yl]amino]phenyl]-piperazin-1-ylmethanone formate] |  | IC90 [2]: 0.368 µM
11 | Cn1ccc(Cn2cc(-c3cnc4c(Nc5ccc(C(=O)N6CCNCC6)c(Cl)c5)nccn34)c(C(F)(F)F)n2)n1 [Example 183, [2-chloro-4-[[3-[1-[(1-methylpyrazol-3-yl)methyl]-3-(trifluoromethyl)pyrazol-4-yl]imidazo[1,2-a]pyrazin-8-yl]amino]phenyl]-piperazin-1-ylmethanone formate] |  | IC90 [2]: 0.372 µM
12 | Cc1cc(Cn2cc(-c3cnc4c(Nc5ccc(C(=O)N6CCNCC6)c(Cl)c5)nccn34)c(C(F)(F)F)n2)nn1C [Example 185, [2-chloro-4-[[3-[1-[(1,5-dimethylpyrazol-3-yl)methyl]-3-(trifluoromethyl)pyrazol-4-yl]imidazo[1,2-a]pyrazin-8-yl]amino]phenyl]-piperazin-1-ylmethanone formate] |  | IC90 [2]: 0.65 µM

More lines, main results first:

Row | IC90 [1] | SMILES | further results
13 | 0.369 µM | O=C(NC1CN(C(=O)c2ccc(Nc3nccn4c(-c5c[nH]nc5C(F)(F)F)cnc34)cc2Cl)C1)N[C@@H]1CCNC1 [Example 168, 1-[1-[2-chloro-4-[[3-[3-(trifluoromethyl)-1H-pyrazol-4-yl]imidazo[1,2-a]pyrazin-8-yl]amino]benzoyl]azetidin-3-yl]-3-[(3R)-pyrrolidin-3-yl]urea] | 
14 | 0.475 µM | N#CCn1cc(-c2cnc3c(Nc4ccc(C(=O)N5CC(NC(=O)C6CCNCC6)C5)c(Cl)c4)nccn23)c(C(F)(F)F)n1 [Example 170, N-[1-[2-chloro-4-[[3-[1-(cyanomethyl)-3-(trifluoromethyl)pyrazol-4-yl]imidazo[1,2-a]pyrazin-8-yl]amino]benzoyl]azetidin-3-yl]piperidine-4-carboxamide] | 
15 | 0.509 µM | N#CCn1cc(-c2cnc3c(Nc4ccc(C(=O)N5CC(NC(=O)N[C@@H]6CCNC6)C5)c(Cl)c4)nccn23)c(C(F)(F)F)n1 [Example 171, 1-[1-[2-chloro-4-[[3-[1-(cyanomethyl)-3-(trifluoromethyl)pyrazol-4-yl]imidazo[1,2-a]pyrazin-8-yl]amino]benzoyl]azetidin-3-yl]-3-[(3R)-pyrrolidin-3-yl]urea] | 
16 | 0.832 µM | N#CCn1cc(-c2cnc3c(Nc4ccc(C(=O)N5CC(NC(=O)N[C@H]6CCNC6)C5)c(Cl)c4)nccn23)c(C(F)(F)F)n1 [Example 172, 1-[1-[2-chloro-4-[[3-[1-(cyanomethyl)-3-(trifluoromethyl)pyrazol-4-yl]imidazo[1,2-a]pyrazin-8-yl]amino]benzoyl]azetidin-3-yl]-3-[(3S)-pyrrolidin-3-yl]urea] | 
17 | 1.11 µM | N#CCn1cc(-c2cnc3c(Nc4ccc(C(=O)N5CC(NC(=O)[C@@H]6C[C@@H](O)CN6)C5)c(Cl)c4)nccn23)c(C(F)(F)F)n1 [Example 173, (2S,4R)-N-[1-[2-chloro-4-[[3-[1-(cyanomethyl)-3-(trifluoromethyl)pyrazol-4-yl]imidazo[1,2-a]pyrazin-8-yl]amino]benzoyl]azetidin-3-yl]-4-hydroxypyrrolidine-2-carboxamide] | 
18 | 0.081 µM | C#CCn1cc(-c2cnc3c(Nc4ccc(C(=O)NCCOCCN)c(CC)c4)nccn23)c(C(F)(F)F)n1 [Example 174, N-[2-(2-aminoethoxy)ethyl]-2-ethyl-4-[[3-[1-prop-2-ynyl-3-(trifluoromethyl)pyrazol-4-yl]imidazo[1,2-a]pyrazin-8-yl]amino]benzamide] | 
19 | 0.357 µM | O=C(NC1CN(C(=O)c2ccc(Nc3nccn4c(-c5c[nH]nc5C(F)(F)F)cnc34)cc2Cl)C1)[C@@H]1C[C@@H](O)CN1 [Example 175, (2S,4R)-N-[1-[2-chloro-4-[[3-[3-(trifluoromethyl)-1H-pyrazol-4-yl]imidazo[1,2-a]pyrazin-8-yl]amino]benzoyl]azetidin-3-yl]-4-hydroxypyrrolidine-2-carboxamide] | 
20 | 0.409 µM | CCc1cc(Nc2nccn3c(-c4c[nH]nc4C(F)(F)F)cnc23)ccc1C(=O)NCCOCC(C)(C)N [Example 176, N-[2-(2-amino-2-methylpropoxy)ethyl]-2-ethyl-4-[[3-[3-(trifluoromethyl)-1H-pyrazol-4-yl]imidazo[1,2-a]pyrazin-8-yl]amino]benzamide hydrochloride] | 
21 | 0.11 µM | O=C(c1ccc(Nc2nccn3c(-c4cn(Cc5cc[nH]n5)nc4C(F)(F)F)cnc23)cc1Cl)N1CCNCC1 [Example 177, [2-chloro-4-[[3-[1-(1H-pyrazol-3-ylmethyl)-3-(trifluoromethyl)pyrazol-4-yl]imidazo[1,2-a]pyrazin-8-yl]amino]phenyl]-piperazin-1-ylmethanone] | 
22 | 0.4 µM | C#CCNCCCNC(=O)c1ccc(Nc2nccn3c(-c4c[nH]nc4C(F)(F)F)cnc23)cc1CC [Example 184, 2-ethyl-N-[3-(prop-2-ynylamino)propyl]-4-[[3-[3-(trifluoromethyl)-1H-pyrazol-4-yl]imidazo[1,2-a]pyrazin-8-yl]amino]benzamide] | 
23 | 0.206 µM | N#CCn1cc(-c2cnc3c(Nc4ccc(C(=O)N5CCN(C(=O)[C@H]6CCCN6)CC5)c(Cl)c4)nccn23)c(C(F)(F)F)n1 [Example 186, 2-[4-[8-[3-chloro-4-[4-[(2R)-pyrrolidine-2-carbonyl]piperazine-1-carbonyl]anilino]imidazo[1,2-a]pyrazin-3-yl]-3-(trifluoromethyl)pyrazol-1-yl]acetonitrile] | 
24 | 0.159 µM | C[C@H](N)C(=O)N1CCN(C(=O)c2ccc(Nc3nccn4c(-c5cn(CC#N)nc5C(F)(F)F)cnc34)cc2Cl)CC1 [Example 187, 2-[4-[8-[4-[4-[(2S)-2-aminopropanoyl]piperazine-1-carbonyl]-3-chloroanilino]imidazo[1,2-a]pyrazin-3-yl]-3-(trifluoromethyl)pyrazol-1-yl]acetonitrile] | 
25 | 0.197 µM | C[C@@H](N)C(=O)N1CCN(C(=O)c2ccc(Nc3nccn4c(-c5cn(CC#N)nc5C(F)(F)F)cnc34)cc2Cl)CC1 [Example 188, 2-[4-[8-[4-[4-[(2R)-2-aminopropanoyl]piperazine-1-carbonyl]-3-chloroanilino]imidazo[1,2-a]pyrazin-3-yl]-3-(trifluoromethyl)pyrazol-1-yl]acetonitrile] | 
